Data as given in patent publication US12668594B2, “TYK2 inhibitors and uses thereof” (Sudo Biosciences Limited, priority 2020, dated 2026).

What was measured:
TYK2 [1] = molecular target: T1, TYK2 (Homo sapiens, UniProt P29597); test: HEK-Blue IL-23 reporter assay (SEAP) for TYK2 pseudokinase inhibition; assay type: cell-based; parameters: HEK-Blue™ IL-23 and IFNα/β cells with a stably-integrated cytokine receptor and STAT3 or STAT1; host or cells: HEK-Blue IL-23 / HEK-Blue IFNα/β cells (HEK293 background); details: HEK-Blue IL-23 cells, 10 ng/mL human recombinant IL-23, SEAP reporter; read-out: IL23 IC50
T1 sequence (P29597 whole entry): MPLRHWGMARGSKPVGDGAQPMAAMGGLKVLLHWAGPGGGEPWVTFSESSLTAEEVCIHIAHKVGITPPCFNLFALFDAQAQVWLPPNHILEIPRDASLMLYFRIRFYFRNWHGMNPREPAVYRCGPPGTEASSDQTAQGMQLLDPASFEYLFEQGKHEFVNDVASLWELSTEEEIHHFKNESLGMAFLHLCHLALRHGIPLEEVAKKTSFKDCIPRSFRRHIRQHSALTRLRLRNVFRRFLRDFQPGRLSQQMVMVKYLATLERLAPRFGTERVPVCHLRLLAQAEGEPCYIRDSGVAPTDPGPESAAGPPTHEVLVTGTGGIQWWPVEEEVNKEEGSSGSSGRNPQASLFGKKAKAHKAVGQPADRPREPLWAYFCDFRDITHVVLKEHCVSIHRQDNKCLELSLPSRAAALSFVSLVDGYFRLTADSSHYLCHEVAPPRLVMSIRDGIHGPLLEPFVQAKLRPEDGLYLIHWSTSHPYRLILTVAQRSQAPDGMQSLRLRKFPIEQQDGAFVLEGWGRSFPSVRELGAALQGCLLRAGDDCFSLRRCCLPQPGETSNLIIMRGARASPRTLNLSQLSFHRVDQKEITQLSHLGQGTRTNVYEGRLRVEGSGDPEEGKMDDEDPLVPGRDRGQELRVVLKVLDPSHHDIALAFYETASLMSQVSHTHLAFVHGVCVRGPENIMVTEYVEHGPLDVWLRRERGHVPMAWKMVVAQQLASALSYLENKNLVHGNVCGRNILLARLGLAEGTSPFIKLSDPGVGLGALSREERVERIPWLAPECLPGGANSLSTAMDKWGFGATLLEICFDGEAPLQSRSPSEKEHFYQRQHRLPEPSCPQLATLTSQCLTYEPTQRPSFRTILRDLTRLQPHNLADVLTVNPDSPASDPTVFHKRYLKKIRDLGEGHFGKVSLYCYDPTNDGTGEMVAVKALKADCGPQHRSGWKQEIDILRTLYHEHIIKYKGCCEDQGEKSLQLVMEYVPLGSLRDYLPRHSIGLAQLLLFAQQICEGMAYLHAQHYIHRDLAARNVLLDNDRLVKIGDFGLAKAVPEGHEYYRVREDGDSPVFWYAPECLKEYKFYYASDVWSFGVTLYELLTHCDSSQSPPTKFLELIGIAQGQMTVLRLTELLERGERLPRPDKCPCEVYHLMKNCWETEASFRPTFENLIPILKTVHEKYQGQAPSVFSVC
Experimental: (§1) HEK-Blue™ IL-23 and IFNα/β cells with a stably-integrated cytokine receptor and STAT3 or STAT1 express STAT-inducible secreted embryonic alkaline phosphatase (SEAP) reporter gene upon cytokine stimulation. These cells are plated in DMVEM (Gibco) containing 10% heat-inactivated FBS (Gibco) and 100 U/mL PenStrep (Gibco) at 37° C. under […] conditions for 20-22 hours. The cells are then pretreated with serially diluted test compounds for 60 min prior to stimulation with either 10 ng/mL human recombinant IL-23 (Miltenyl Biotech) or 1 ng/mL human recombinant IFNα (InvivoGen) for 22-24 hours for IL-23 or 16-18 h for IFNα. SEAP induction is measured using the QUANTI Blue™ Solution (InvivoGen) according to the manufacturer's instructions. Inhibition data are calculated by comparison to no inhibitor control wells for 000 inhibition and non-stimulated control wells for 10000 inhibition. Dose response curves are generated to determine the concentration required to inhibit 5000 of cellular response (IC50) as derived by non-linear regression analysis.

TYK2 [2] = molecular target: T1, TYK2; test: HEK-Blue IFNα/β reporter assay (SEAP) for TYK2 pseudokinase inhibition; assay type: cell-based; details: HEK-Blue IFNα/β cells, 1 ng/mL human recombinant IFNα
Experimental: as §1

IC50 (TYK2 [1]) [µM] | IC50 (TYK2 [2]) [µM] | Structure (SMILES)
< 10 | < 10 | COc1cccc(-n2[nH]c(=O)c3cnc(Nc4ccc(F)cn4)cc32)n1 [Compound I-36, 6-((5-fluoropyridin-2-yl)amino)-1-(6-methoxypyridin-2-yl)-1,2-dihydro-3H-pyrazolo[4,3-c]pyridin-3-one]
< 10 | 10 to 30 | COc1cccc(-n2[nH]c(=O)c3cnc(Nc4ccc(F)cn4)cc32)c1F [Compound I-38, 1-(2-fluoro-3-methoxyphenyl)-6-((5-fluoropyridin-2-yl)amino)-1,2-dihydro-3H-pyrazolo[4,3-c]pyridin-3-one]
< 10 | < 10 | COc1cccc(-n2[nH]c(=O)c3cnc(Nc4ccc(F)cn4)cc32)c1 [Compound I-39, 6-((5-fluoropyridin-2-yl)amino)-1-(3-methoxyphenyl)-1,2-dihydro-3H-pyrazolo[4,3-c]pyridin-3-one]
< 10 | < 10 | COc1cccc(-n2[nH]c(=O)c3cnc(Nc4ccc(C#N)cn4)cc32)c1 [Compound I-40, 6-((1-(3-methoxyphenyl)-3-oxo-2,3-dihydro-1H-pyrazolo[4,3-c]pyridin-6-yl)amino)nicotinonitrile]
< 10 | < 10 | COc1ccc(Nc2cc3c(cn2)c(=O)[nH]n3-c2cccc(OC)c2)nc1 [Compound I-41, 1-(3-methoxyphenyl)-6-((5-methoxypyridin-2-yl)amino)-1,2-dihydro-3H-pyrazolo[4,3-c]pyridin-3-one]
< 10 | < 10 | COc1cccc(-n2[nH]c(=O)c3cnc(Nc4ccc(C(F)(F)F)cn4)cc32)c1 [Compound I-42, 1-(3-methoxyphenyl)-6-((5-(trifluoromethyl)pyridin-2-yl)amino)-1,2-dihydro-3H-pyrazolo[4,3-c]pyridin-3-one]
< 10 | < 10 | COc1cccc(-n2[nH]c(=O)c3cnc(Nc4cc(C#N)ccn4)cc32)c1 [Compound I-44, 2-((1-(3-methoxyphenyl)-3-oxo-2,3-dihydro-1H-pyrazolo[4,3-c]pyridin-6-yl)amino)isonicotinonitrile]
10 to 30 | > 90 | COc1cccc(-n2[nH]c(=O)c3cnc(Nc4cc(OC)ccn4)cc32)c1 [Compound I-45, 1-(3-methoxyphenyl)-6-((4-methoxypyridin-2-yl)amino)-1,2-dihydro-3H-pyrazolo[4,3-c]pyridin-3-one]
< 10 | > 90 | COc1cccc(-n2[nH]c(=O)c3cnc(Nc4cc(OC)ncn4)cc32)c1 [Compound I-46, 1-(3-methoxyphenyl)-6-((6-methoxypyrimidin-4-yl)amino)-1,2-dihydro-3H-pyrazolo[4,3-c]pyridin-3-one]
> 90 | < 10 | COc1cccc(-n2[nH]c(=O)c3cnc(Nc4cc(C)ncn4)cc32)c1 [Compound I-47, 1-(3-methoxyphenyl)-6-((6-methylpyrimidin-4-yl)amino)-1,2-dihydro-3H-pyrazolo[4,3-c]pyridin-3-one]
> 90 | > 90 | COc1cccc(-n2[nH]c(=O)c3cnc(Nc4ccnc(OC)n4)cc32)c1 [Compound I-48, 1-(3-methoxyphenyl)-6-((2-methoxypyrimidin-4-yl)amino)-1,2-dihydro-3H-pyrazolo[4,3-c]pyridin-3-one]
< 10 | < 10 | COc1cccc(-n2[nH]c(=O)c3cnc(Nc4ccccn4)cc32)c1 [Compound I-50, 1-(3-methoxyphenyl)-6-(pyridin-2-ylamino)-1,2-dihydro-3H-pyrazolo[4,3-c]pyridin-3-one]
< 10 | < 10 | COc1cccc(-n2[nH]c(=O)c3cnc(Nc4ccncn4)cc32)c1 [Compound I-51, 1-(3-methoxyphenyl)-6-(pyrimidin-4-ylamino)-1,2-dihydro-3H-pyrazolo[4,3-c]pyridin-3-one]
< 10 | < 10 | COc1cccc(-n2[nH]c(=O)c3cnc(Nc4cccnn4)cc32)c1 [Compound I-52, 1-(3-methoxyphenyl)-6-(pyridazin-3-ylamino)-1,2-dihydro-3H-pyrazolo[4,3-c]pyridin-3-one]
